The text below walks through data of US12708791B2, “Management of dermal neurofibromatosis lesions” (Sun Pharmaceutical Industries, Inc., priority 2020, dated 2026).

What all share (assay type): in vivo, human
The test system of data set [1] is superficial dermal neurofibromas. Kind of data set: Photosensitizer uptake and conversion: PpIX fluorescence in excised tumors by confocal microscopy. The protocol:
Four adult subjects were enrolled (2 males, 2 females) in part 1. Three tumor groups for each subject consisted of untreated negative controls, tumors treated with drug vehicle only, and ALA (Levulan® Kerastick® Topical Solution, Sun Pharma, Wilmington, MA, USA) treated tumors. Treated tumors were incubated with ALA or vehicle three hours (2 subjects) or overnight (2 subjects), then excised and subjected to fluorescence microscopy studies to measure mean fluorescence indicating PpIX conversion in tumors. Four adult subjects (2 males, 2 females) participated in part 1. Ages ranged from 39 to 67 yrs.
Photosensitizer Uptake: Treated tumors were incubated with ALA or vehicle three hours (2 subjects) or overnight (2 subjects), then excised and subjected to fluorescence microscopy studies to measure mean fluorescence indicating PpIX conversion in tumors. Importantly, ALA delivery for the subjects undergoing overnight incubation was assisted using microneedling (Dermapen®, Salt Lake City, Utah) of the tumors. […] The primary outcome measure was the ratio of mean fluorescence intensity in tumors compared to adjacent normal tissue, as determined by confocal microscopy. PpIX signals were detected with excitation at 405 nm and emission with a 600 nm long pass filter.

The subject of data set [2] is neurofibroma lesions. The procedure: Nine adult subjects participated in part 2, four male and five female. Ages ranged from 39 to 69, with a median of 58. For each subject neurofibromalesions were selected for treatment with ALA (3-6 lesions) and vehicle (3-6 lesions) delivered with microneedling. Following an overnight (16-18 hrs.) incubation time, all treated neurofibromas were illuminated with red light at 633 nm and 105 mW/cm^2 (Omnilux Revive® LED illuminator, Photo Therapeutics, Montgomeryville, PA, USA). The dose escalation study included doses of 50, 100 or 200 J/cm^2. Each subject received one single treatment.
Study Design: This study followed a 3+3 Phase I trial design, subjects were treated starting at a dose level of 50 J/cm^2. Dose escalation was performed only after a minimum of three subjects had been evaluated at the current level. If dose-limiting toxicity (DLT) occurred in 1 of 3 subjects, 3 more subjects would be evaluated at that dose level. DLT was defined as pain during irradiation requiring cessation of the light treatment, or any serious cutaneous adverse events, such as erosions or blistering or crusting of the skin. If 0 of these 3 subjects experienced DLT, then the dose was escalated (only one DLT in six subjects). If DLT occurred in 1 of the additional 3 subjects, the […] tolerable dose (MTD) had been exceeded (two DLTs in six subjects) and 3 more subjects would be treated at the next lower dose (if only 3 subjects had been treated previously at that dose). […] The MTD is defined as that dose level immediately below the dose level at which 2 subjects of a cohort (three or six subjects) experience DLT.
(§1) (day 2), and 2 to 4 (day 14-28) weeks after light treatment, for evaluation of cutaneous adverse events. At day 2, tumors were biopsied using a punch technique and subjected to light microscopy exam, TUNEL assay (DeadEnd™ Colorimetric TUNEL System, Promega, Madison, WI), and DAPI (4′,6-diamidino-2-phenylindole) staining (ab228549, Abcam, Cambridge, MA). Additional follow-up visits for measurement of lesions were made at periods of 3 months up to one year. See FIG. 1 for a schematic of the study design. The primary outcome for this clinical study was MTD, as measured in the dose escalation using the DLT as defined above. A secondary outcome measured efficacy defined by change in lesion size. The area of the lesion was estimated at baseline and during follow-up visits by measuring the long and short axis of the lesion. Average growth rates were calculated and comparisons made between ALA-treated and placebo lesions within the same subject. The null hypothesis was that there would be no difference in the growth rates of ALA-treated lesions when paired with same-subject placebo lesions. The alternative hypothesis was there would be a difference in the ALA and placebo lesion growth rates.

The subject of data set [3] is neurofibromas. Kind of data set: Light microscopy exam (hematoxylin & eosin) of tumors biopsied at day 2. Particulars: ALA-treated tumors, day 2 after PDT.
Description: as §1

In data set [4] the test system is neurofibromas. In words: TUNEL assay for apoptotic cell death in tumors biopsied at day 2. Particulars: all TUNEL evaluated tumor samples, five subjects; p=0.002 vs vehicle.
Description: as §1

Data set [5] concerns neurofibroma lesions. In words: Lesion size and growth rate after PDT treatment.
Description: as §1

SMILES strings stand for the structures. Where “and” joins values, the source holds several entries; their conditions need not be identical. Equal entries are not always repeated.

Consider `NCC(=O)CCC(=O)O` [ALA, 5-aminolevulinic acid], for which the “Fluorescence compared to adjacent normal tissue” value in data set [1] (microneedled, overnight incubation) is reported as “significant fluorescence”. Besides, the “Fluorescence in the apparent tumor zones” value in data set [1] (topical ALA, incubated 3 hrs., excised tumors from two subjects) is reported as “no fluorescence”. For the same molecule, in data set [2] (ALA-PDT treated NF lesions), the “Duration of post inflammatory hyperpigmentation” value is given as “up to 3 months”; the “Time by which edema and redness subsided” value is not above 2 days. Besides, in data set [2] (human, in vivo), the “Blister formation, erosion or crusting” value was “no blister formation, erosion or crusting”; the “Erythema and edema around lesions” value was “marked erythema and edema”; the “MTD (light dose)” value was found to be 100 J/cm^2; the “Pain and discomfort induced by red light treatment” value was “marked pain and discomfort”. In addition, in data set [2] (human, in vivo), the “Subjects with DLT (pain requiring cessation of the light treatment)” value is given as “One subject”. Moreover, in data set [2] (red light 105 mW/cm^2, 50 or 100 J/cm^2), the “Duration of erythema and edema” value is given as “at least 48 hrs”. The “Infiltrate on light microscopy” value in data set [3] was “mixed infiltrate consisting of lymphocytes, neutrophils, and rare eosinophils”. Also, the “Average number of apoptotic cells per visual field” value in data set [4] was found to be 42.5±19.9. The Tumor size change entry in data set [5] (measured at 2, 4 and 12 weeks after treatment, five subjects) was “did not show significant change”. In addition, the “Growth rate ALA” value in data set [5] (post PDT treatment, individual subjects) was −0.073 (0.063) mm^2/day and 0.028 (0.040) mm^2/day and 0.097 (0.103) mm^2/day and 0.375 (00157) mm^2/day and −0.024 (0.030) mm^2/day. Moreover, the “Difference in growth rates (ALA vs placebo)” value in data set [5] (post PDT treatment, individual subjects, same-subject placebo lesions) was 0.034 mm^2/day and −0.239 mm^2/day and 0.097 mm^2/day and −0.440 mm^2/day and −0.110 mm^2/day.
